Laboratory results reported in patent US20250188123A1, “PROTEASE INHIBITORS” (Regents of the University of Minnesota, priority 2022, published 2025).

Experiments:
Type in all cases: biochemical
Human recombinant Casp1 = molecular target: T1, Human recombinant Casp1 (Homo sapiens, UniProt P29466); assay: In vitro caspase panel assay, Casp1; conditions: Casp2 over Casp1, caspase panel
T1 construct: purchased BioVision (Milpitas/CA, USA)
T1 sequence (P29466 120-404): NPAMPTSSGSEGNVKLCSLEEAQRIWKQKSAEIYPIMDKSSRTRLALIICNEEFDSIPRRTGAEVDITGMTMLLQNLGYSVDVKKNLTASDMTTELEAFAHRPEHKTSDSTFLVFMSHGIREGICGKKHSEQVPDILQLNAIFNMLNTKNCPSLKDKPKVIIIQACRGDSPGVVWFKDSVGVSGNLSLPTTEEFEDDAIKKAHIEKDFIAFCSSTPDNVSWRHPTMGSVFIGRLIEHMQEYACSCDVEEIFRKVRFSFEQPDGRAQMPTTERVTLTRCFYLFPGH
Source text: (§1) Human recombinant Casp1, 6, 7, and 9 were purchased from BioVision (Milpitas/CA, USA). AFC fluorogenic substrates and control peptides (AcYVAD-CHO, AcVDVAD-CHO, AcDEVD-CHO, AcVEID-CHO, and AcLEHD-CHO) were purchased from Bachem (Torrance/CA, USA). The pET23b vector encoding human caspase-3 was a gift of Dr. Michelle Arkin at University of California, San Francisco. Expression and purification of Casp3 was guided by previously described protocols (Denault J-B, Salvesen G S., Current Protocols in Protein Science, 2002, 30(1), 21.13. 1-21.13. 15). Briefly, the plasmid was transformed into E. coli Rosetta 2 pLyss DE3 cells that were cultured at 1 L scale in shake flasks. […] The typical yield for the expression, isolation, and purification was approximately 3 mg/L. The DNA encoding human caspase-2 (hCASP2, amino acids 170-452, free of the N-terminal caspase activation and recruitment domain) open reading frame (ORF) was amplified via polymerase chain reaction (PCR) from full-length hCASP2 cDNA (Origene, Rockville, MD; Cat #SC321316) using following primers: forward, 5′-[…]-3′; reverse, 5′-[…]-3′. […] Proteins were stored in 1× phosphate-buffered saline (pH 7.4) at 10 mg/mL (concentration determined using a BCA assay (Thermo Fisher Scientific)), −80° C. until further use. […]

Human recombinant Casp6 = molecular target: T2, Human recombinant Casp6 (Homo sapiens, UniProt P55212); assay: In vitro caspase panel assay, Casp6; conditions: Casp2 over Casp6, caspase panel
T2 construct: purchased BioVision (Milpitas/CA, USA)
T2 sequence (P55212 24-293): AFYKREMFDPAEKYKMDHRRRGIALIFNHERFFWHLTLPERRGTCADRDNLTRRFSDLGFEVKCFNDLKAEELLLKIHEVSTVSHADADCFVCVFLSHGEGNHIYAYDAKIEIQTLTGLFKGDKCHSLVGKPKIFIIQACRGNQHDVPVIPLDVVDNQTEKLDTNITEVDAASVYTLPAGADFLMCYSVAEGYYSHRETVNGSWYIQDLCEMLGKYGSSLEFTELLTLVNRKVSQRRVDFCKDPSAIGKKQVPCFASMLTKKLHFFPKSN
Source text: as §1

Human recombinant Casp9 = molecular target: T3, Human recombinant Casp9 (Homo sapiens, UniProt P55211); assay: In vitro caspase panel assay, Casp9; conditions: Casp2 over Casp9, caspase panel
T3 construct: purchased BioVision (Milpitas/CA, USA)
T3 sequence (P55211 1-416): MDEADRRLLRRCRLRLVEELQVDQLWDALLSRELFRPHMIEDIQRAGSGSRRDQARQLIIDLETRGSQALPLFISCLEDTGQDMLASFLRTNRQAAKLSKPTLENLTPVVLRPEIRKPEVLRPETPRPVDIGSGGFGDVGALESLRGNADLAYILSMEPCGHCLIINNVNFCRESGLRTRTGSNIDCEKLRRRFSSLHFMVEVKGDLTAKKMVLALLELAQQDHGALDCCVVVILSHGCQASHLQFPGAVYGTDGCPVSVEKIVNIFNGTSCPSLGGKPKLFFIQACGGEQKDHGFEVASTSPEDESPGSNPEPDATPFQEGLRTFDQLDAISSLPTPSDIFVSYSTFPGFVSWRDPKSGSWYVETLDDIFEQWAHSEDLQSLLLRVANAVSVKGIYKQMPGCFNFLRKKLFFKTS
Source text: as §1

thrombin = thrombin (Homo sapiens, UniProt P00734); assay: Activity at thrombin proteolytic enzyme
cathepsin B = cathepsin B (Homo sapiens, UniProt P07858); assay: Activity at cathepsin B proteolytic enzyme

For `Cc1ccc2c(c1)CCN(C(=O)[C@@H](NC(=O)[C@H](CCCC(=O)O)NC(=O)C1Cc3ccccc3N1)C(C)C)[C@@H]2C(=O)N[C@H](C#N)CC(=O)O` (stereo partly drawn) [Compound 1, (8)-6-(((S)-1-((8)-1-(((S)-2-carboxy-1-cyanoethyl)carbamoyl)-6-methyl-3,4-dihydroisoquinolin-2(1H)-yl)-3-methyl-1-oxobutan-2-yl)amino)-5-((S)-indoline-2-carboxamido)-6-oxohexanoic acid], the “selective versus Casp1” value (Human recombinant Casp1) was over 2000 fold, the “selective versus Casp6” value (Human recombinant Casp6) was over 2000 fold and the “selective versus Casp9” value (Human recombinant Casp9) was over 2000 fold. The activity at thrombin (thrombin) was “weak activity” and the “activity at cathepsin B” value (cathepsin B) was “weak activity”.
